Laboratory results taken from US12653815B2, “Luminally-acting N-(piperidin-4-yl)benzamide derivatives” (Takeda Pharmaceutical Company Limited, priority 2020, dated 2026).
pEC50: −log10 of the molar value.

Target: T1, human 5-HT4(b) receptor (Homo sapiens, UniProt Q13639)
T1 construct: overexpressing the full-length human 5-HT4(b) receptor with an N-terminal FLAG tag; FLAG (N); host or cells: CHO-K1
Assay: 5-HT4(b) agonist assay (cAMP accumulation)
Type: cell-based
Conditions: CHO-K1 cells overexpressing full-length human 5-HT4(b) receptor; cAMP accumulation after 30 minutes at room temperature; 1 μM 5-HT as 100% activity
Protocol: One may determine the activity of the compounds of Formula 1 using a variety of methods, including in vitro and in vivo methods. The ability of the example compounds to activate the 5-HT4(b) receptor may be determined using the following assay.
Chinese hamster ovary (CHO-K1) cells overexpressing the full-length human 5-HT4(b) receptor with an N-terminal FLAG tag (Multispan Inc, Hayward, CA) are cultured per the manufacturer's protocol in 1:1 DMEM/F12 (Thermo Fisher, Waltham, MA) with 10% fetal bovine serum (GE Healthcare, Pittsburgh, PA) and 10 μg/mL puromycin (Thermo Fisher, Waltham, MA), and stored in frozen aliquots to be used as assay ready cells. On the day of the assay, cells are removed from frozen storage, washed two times in 1× Kreb's Ringer Buffer (Zenbio, Research Triangle Park, NC), and re-suspended to a concentration of 4×10^6 cells/mL in 1× Kreb's Ringer Buffer. Test compound (50 nL) in 100% DMSO is acoustically dispensed in low volume, white, 384-well polypropylene plates (Corning, Tewksbury, MA), followed by the addition of 4×10^4 cells per well in a total volume of 10 μL. Cells are incubated with test compound for 30 minutes at room temperature in the dark, and cAMP accumulation is measured using the Cisbio HiRange cAMP assay kit (Bedford, MA) per the manufacturer's protocol. Anti-cAMP antibody and d2-cAMP tracer reagents diluted in lysis/detection buffer are incubated in the dark for 1 hour, and results are measured on a Pherastar plate reader (BMG Labtech, Ortenberg, Germany). Data are normalized using 1 μM 5-HT (Sigma Aldrich, St. Louis, MO) as 100% activity, and DMSO alone as 0% activity.
The ability of the example compounds to activate the 5-HT4(b) receptor was evaluated using the assay described in the Biological Activity section. Table 1, below, lists EC50 from the 5-HT4(b) agonist assay for each of the example compounds, where smaller EC50 values represent higher potency.

T1 sequence (Q13639 whole entry): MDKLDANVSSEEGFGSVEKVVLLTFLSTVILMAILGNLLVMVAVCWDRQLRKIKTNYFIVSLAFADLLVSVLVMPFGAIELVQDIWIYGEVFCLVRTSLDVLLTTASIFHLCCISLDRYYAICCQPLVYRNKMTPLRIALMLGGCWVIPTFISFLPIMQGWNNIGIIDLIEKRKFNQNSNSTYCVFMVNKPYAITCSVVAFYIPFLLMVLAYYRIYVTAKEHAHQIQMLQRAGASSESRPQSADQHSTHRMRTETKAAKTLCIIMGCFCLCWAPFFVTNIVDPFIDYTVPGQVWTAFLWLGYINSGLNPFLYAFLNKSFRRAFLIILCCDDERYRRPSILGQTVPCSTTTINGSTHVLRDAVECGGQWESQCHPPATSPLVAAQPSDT

Row | pEC50 | SMILES
1 | 8.42 | Nc1c(Cl)cc(C(=O)NC2CCN(CCCCCC(=O)N[C@@H]3CCCN(CCCCCCCC(=O)NC[C@H](O)[C@@H](O)[C@H](O)[C@H](O)CO)C3)CC2)c2c1CCO2 [Example 28, 4-amino-5-chloro-N-(1-(6-oxo-6-(((R)-1-(8-oxo-8-(((2S,3R,4R,5R)-2,3,4,5,6-pentahydroxyhexyl)amino)octyl)piperidin-3-yl)amino)hexyl)piperidin-4-yl)-2,3-dihydrobenzofuran-7-carboxamide]
2 | 7.65 | COc1cc(N)c(Cl)cc1C(=O)N[C@@H]1CCN(CCCCCC(=O)NCCCCCC(=O)NC[C@H](O)[C@@H](O)[C@H](O)[C@H](O)CO)C[C@@H]1OC [Example 3, 4-amino-5-chloro-2-methoxy-N-((3S,4R)-3-methoxy-1-(6-oxo-6-((6-oxo-6-(((2S,3R,4R,5R)-2,3,4,5,6-pentahydroxyhexyl)amino)hexyl)amino)hexyl)piperidinyl)benzamide]
3 | 7.82 | Nc1c(Cl)cc(C(=O)NC2CCN(CCCCCC(=O)NCCCC(=O)NC[C@H](O)[C@@H](O)[C@H](O)[C@H](O)CO)CC2)c2c1CCO2 [Example 34, 4-amino-5-chloro-N-(1-(6-oxo-6-((4-oxo-4-(((2S,3R,4R,5R)-2,3,4,5,6-pentahydroxyhexyl)amino)butyl)amino)hexyl)piperidin-4-yl)-2,3-dihydrobenzofuran-7-carboxamide]
4 | 8.70 | Nc1c(Cl)cc(C(=O)NCC2CCN(CC3CCN(C(=O)CCCCCCC(=O)NC[C@H](O)[C@@H](O)[C@H](O)[C@H](O)CO)CC3)CC2)c2c1CCO2 [Example 40, 4-amino-5-chloro-N-((1-((1-(8-oxo-8-(((2S,3R,4R,5R)-2,3,4,5,6-pentahydroxyhexyl)amino)octanoyl)piperidin-4-yl)methyl)piperidin-4-yl)methyl)-2,3-dihydrobenzofuran-7-carboxamide]
5 | 7.54 | COc1cc(N)c(Cl)cc1C(=O)N[C@@H]1CCN(CCCCCC(=O)NCCCCCCCC(=O)N[C@H]2C[C@](O)(CO)[C@@H](O)[C@H](O)[C@H]2O)C[C@@H]1OC [Example 24, 4-amino-5-chloro-2-methoxy-N-((3S,4R)-3-methoxy-1-(6-oxo ((8-oxo-8-(((1S,2S,3R,4S,5S)-2,3,4,5-tetrahydroxy (hydroxymethyl)cyclohexyl)amino)octyl)amino)hexyl)piperidin-4-yl)benzamide]
6 | 8.59 | Nc1c(Cl)cc(C(=O)NCC2CCN(CC3CCN(CCCCCCCCC(=O)NC[C@H](O)[C@@H](O)[C@H](O)[C@H](O)CO)CC3)CC2)c2c1CCO2 [Example 35, 4-amino-5-chloro-N-((1-((1-(9-oxo-9-(((2S,3R,4R,5R)-2,3,4,5,6-pentahydroxyhexyl)amino)nonyl)piperidin-4-yl)methyl)piperidin-4-yl)methyl)-2,3-dihydrobenzofuran-7-carboxamide]
7 | 7.88 | COc1cc(N)c(Cl)cc1C(=O)N[C@@H]1CCN(CCCCCC(=O)NCC(=O)NC[C@H](O)[C@@H](O)[C@H](O)[C@H](O)CO)C[C@@H]1OC [Example 5, 4-amino-5-chloro-2-methoxy-N-((3S,4R)-3-methoxy-1-(6-oxo-6-((2-oxo-2-(((2S,3R,4R,5R)-2,3,4,5,6-pentahydroxyhexyl)amino)ethyl)amino)hexyl)piperidin-4-yl)benzamide]
8 | 7.24 | COc1cc(N)c(Cl)cc1C(=O)N[C@@H]1CCN(CCC(C)CCC(=O)NCCCCCCCC(=O)NC[C@H](O)[C@@H](O)[C@H](O)[C@H](O)CO)C[C@@H]1OC (stereo partly drawn) [Example 20, 4-amino-5-chloro-2-methoxy-N-((3S,4R)-3-methoxy-1-(3-methyl-6-oxo-6-((8-oxo-8-(((2S,3R,4R,5R)-2,3,4,5,6-pentahydroxyhexyl)amino)octyl)amino)hexyl)piperidin-4-yl)benzamide]
9 | 7.51 | COc1cc(N)c(Cl)cc1C(=O)N[C@@H]1CCN(CCCCCC(=O)N(C)[C@@H]2CCCN(CCCCCC(=O)NC[C@H](O)[C@@H](O)[C@H](O)[C@H](O)CO)C2)C[C@@H]1OC [Example 15, 4-amino-5-chloro-2-methoxy-N-((3S,4R)-3-methoxy-1-(6-(methyl((R)-1-(6-oxo-6-(((2S,3R,4R,5R)-2,3,4,5,6-pentahydroxyhexyl)amino)hexyl)piperidin-3-yl)amino)-6-oxohexyl)piperidin-4-yl)benzamide]
10 | 7.90 | Nc1c(Cl)cc(C(=O)NC2CCN(CCCCCC(=O)NCCCCCC(=O)NC[C@H](O)[C@@H](O)[C@H](O)[C@H](O)CO)CC2)c2c1CCO2 [Example 33, 4-amino-5-chloro-N-(1-(6-oxo-6-((6-oxo-6-(((2S,3R,4R,5R)-2,3,4,5,6-pentahydroxyhexyl)amino)hexyl)amino)hexyl)piperidin-4-yl)-2,3-dihydrobenzofuran-7-carboxamide]
11 | 6.88 | COc1cc(N)c(Cl)cc1C(=O)N[C@@H]1CCN(CCCCCC(=O)NCCCCCCCC(=O)N(CCP(=O)(O)O)C[C@H](O)[C@@H](O)[C@H](O)[C@H](O)CO)C[C@@H]1OC [Example 26, (2-(8-(6-((3S,4R)-4-(4-amino-5-chloro-2-methoxybenzamido)-3-methoxypiperidin-1-yl)hexanamido)-N-((2S,3R,4R,5R)-2,3,4,5,6-pentahydroxyhexyl)octanamido)ethyl)phosphonic acid]
12 | 7.64 | Nc1c(Cl)cc(C(=O)NC2CCN(CCCCCC(=O)NCCCCCCCC(=O)NC[C@H](O)[C@@H](O)[C@H](O)[C@H](O)CO)CC2)c2c1CCO2 [Example 32, 4-amino-5-chloro-N-(1-(6-oxo-6-((8-oxo-8-(((2S,3R,4R,5R)-2,3,4,5,6-pentahydroxyhexyl)amino)octyl)amino)hexyl)piperidin-4-yl)-2,3-dihydrobenzofuran-7-carboxamide]
13 | 7.77 | COc1cc(N)c(Cl)cc1C(=O)N[C@@H]1CCN(CCCCCC(=O)N(C)[C@@H]2CCCN(CCCCCCCC(=O)NC[C@H](O)[C@@H](O)[C@H](O)[C@H](O)CO)C2)C[C@@H]1OC [Example 14, 4-amino-5-chloro-2-methoxy-N-((3S,4R)-3-methoxy-1-(6-(methyl((R)-1-(8-oxo-8-(((2S,3R,4R,5R)-2,3,4,5,6-pentahydroxyhexyl)amino)octyl)piperidin-3-yl)amino)-6-oxohexyl)piperidin-4-yl)benzamide]
14 | 7.58 | COc1cc(N)c(Cl)cc1C(=O)N[C@@H]1CCN(CCCCCC(=O)N(C)C2CCN(CCCCCCCC(=O)NC[C@H](O)[C@@H](O)[C@H](O)[C@H](O)CO)CC2)C[C@@H]1OC [Example 10, 4-amino-5-chloro-2-methoxy-N-((3S,4R)-3-methoxy-1-(6-(methyl(1-(8-oxo-8-(((2S,3R,4R,5R)-2,3,4,5,6-pentahydroxyhexyl)amino)octyl)piperidin-4-yl)amino)-6-oxohexyl)piperidin-4-yl)benzamide]
15 | 7.89 | COc1cc(N)c(Cl)cc1C(=O)N[C@@H]1CCN(CCCCCC(=O)N[C@@H]2CCCN(CCCCCC(=O)NC[C@H](O)[C@@H](O)[C@H](O)[C@H](O)CO)C2)C[C@@H]1OC [Example 13, 4-amino-5-chloro-2-methoxy-N-((3S,4R)-3-methoxy-1-(6-oxo-6-(((R)-1-(6-oxo-6-(((2S,3R,4R,5R)-2,3,4,5,6-pentahydroxyhexyl)amino)hexyl)piperidin-3-yl)amino)hexyl)piperidin-4-yl)benzamide]
16 | 7.25 | COc1cc(N)c(Cl)cc1C(=O)N[C@@H]1CCN(CCCCCC(=O)NCCCCCCCC(=O)NCCS(=O)(=O)O)C[C@@H]1OC [Example 23, 2-(8-(6-((3S,4R)-4-(4-amino-5-chloro-2-methoxybenzamido)-3-methoxypiperidin-1-yl)hexanamido)octanamido)ethane-1-sulfonic acid]
